# Data reported in the kinase profiling compilation of Christmann-Franck et al. (2016).
# What was measured:
# GCK (human) = GCK (human) (UniProt Q12851)
# IRAK4 (human) = IRAK4 (human) (UniProt Q9NWZ3)
# ERBB4 (human) = ERBB4 (human) (UniProt Q15303)
# MAPK10 (human) = MAPK10 (human) (UniProt P53779)
# BRSK1 (human) = BRSK1 (human) (UniProt Q8TDC3)
# NUAK1 (human) = NUAK1 (human) (UniProt O60285)
# HIPK3 (human) = HIPK3 (human) (UniProt Q9H422)
# [1] = test system: PAK2 (human), Q13177 [T402E]
# STK11 (human) = STK11 (human) (UniProt Q15831)
# [2] = test system: AKT1 (human), P31749 [S473D]
# MAPKAPK3 (human) = MAPKAPK3 (human) (UniProt Q16644)
# MINK1 (human) = MINK1 (human) (UniProt Q8N4C8)
# MAP3K11 (human) = MAP3K11 (human) (UniProt Q16584)
# AURKA (human) = AURKA (human) (UniProt O14965)
# MYLK (human) [3] = target: MYLK (human) (UniProt Q15746)
# TTK (human) = TTK (human) (UniProt P33981)
# MAP3K9 (human) = MAP3K9 (human) (UniProt P80192)
# MARK4 (human) = MARK4 (human) (UniProt Q96L34)
# PDGFRA (human) = PDGFRA (human) (UniProt P16234); test: KINOMEscan competition binding; details: compound 10.0 µM
# WEE1 (human) = WEE1 (human) (UniProt P30291); test: KINOMEscan competition binding; details: compound 10.0 µM
# DCLK1 (human) = DCLK1 (human) (UniProt O15075); test: KINOMEscan competition binding; details: compound 10.0 µM
# TLK2 (human) = TLK2 (human) (UniProt Q86UE8); test: KINOMEscan competition binding; details: compound 10.0 µM
# PKMYT1 (human) = PKMYT1 (human) (UniProt Q99640); test: KINOMEscan competition binding; details: compound 10.0 µM
# MAPK15 (human) = MAPK15 (human) (UniProt Q8TD08); test: KINOMEscan competition binding; details: compound 10.0 µM
# TGFBR2 (human) = TGFBR2 (human) (UniProt P37173); test: KINOMEscan competition binding; details: compound 10.0 µM
# ANKK1 (human) = ANKK1 (human) (UniProt Q8NFD2); test: KINOMEscan competition binding; details: compound 10.0 µM
# DDR1 (human) = DDR1 (human) (UniProt Q08345); test: KINOMEscan competition binding; details: compound 10.0 µM
# ZAP70 (human) = ZAP70 (human) (UniProt P43403); test: KINOMEscan competition binding; details: compound 10.0 µM
# PIK3C2B (human) = PIK3C2B (human) (UniProt O00750); test: KINOMEscan competition binding; details: compound 10.0 µM
# [4] = test system: FLT3 (human), P36888 [D835H]; test: KINOMEscan competition binding; details: compound 10.0 µM
# ACVR2A (human) = ACVR2A (human) (UniProt P27037); test: KINOMEscan competition binding; details: compound 10.0 µM
# MYLK (human) [5] = target: MYLK (human) (UniProt Q15746); test: KINOMEscan competition binding; details: compound 10.0 µM
# GSK3B (human) = GSK3B (human) (UniProt P49841); test: KINOMEscan competition binding; details: compound 10.0 µM
# PRKACA (human) = PRKACA (human) (UniProt P17612); test: KINOMEscan competition binding; details: compound 10.0 µM
# MAP2K4 (human) = MAP2K4 (human) (UniProt P45985); test: KINOMEscan competition binding; details: compound 10.0 µM
# Chain of MYLK (human) (Q15746 whole entry, looked up): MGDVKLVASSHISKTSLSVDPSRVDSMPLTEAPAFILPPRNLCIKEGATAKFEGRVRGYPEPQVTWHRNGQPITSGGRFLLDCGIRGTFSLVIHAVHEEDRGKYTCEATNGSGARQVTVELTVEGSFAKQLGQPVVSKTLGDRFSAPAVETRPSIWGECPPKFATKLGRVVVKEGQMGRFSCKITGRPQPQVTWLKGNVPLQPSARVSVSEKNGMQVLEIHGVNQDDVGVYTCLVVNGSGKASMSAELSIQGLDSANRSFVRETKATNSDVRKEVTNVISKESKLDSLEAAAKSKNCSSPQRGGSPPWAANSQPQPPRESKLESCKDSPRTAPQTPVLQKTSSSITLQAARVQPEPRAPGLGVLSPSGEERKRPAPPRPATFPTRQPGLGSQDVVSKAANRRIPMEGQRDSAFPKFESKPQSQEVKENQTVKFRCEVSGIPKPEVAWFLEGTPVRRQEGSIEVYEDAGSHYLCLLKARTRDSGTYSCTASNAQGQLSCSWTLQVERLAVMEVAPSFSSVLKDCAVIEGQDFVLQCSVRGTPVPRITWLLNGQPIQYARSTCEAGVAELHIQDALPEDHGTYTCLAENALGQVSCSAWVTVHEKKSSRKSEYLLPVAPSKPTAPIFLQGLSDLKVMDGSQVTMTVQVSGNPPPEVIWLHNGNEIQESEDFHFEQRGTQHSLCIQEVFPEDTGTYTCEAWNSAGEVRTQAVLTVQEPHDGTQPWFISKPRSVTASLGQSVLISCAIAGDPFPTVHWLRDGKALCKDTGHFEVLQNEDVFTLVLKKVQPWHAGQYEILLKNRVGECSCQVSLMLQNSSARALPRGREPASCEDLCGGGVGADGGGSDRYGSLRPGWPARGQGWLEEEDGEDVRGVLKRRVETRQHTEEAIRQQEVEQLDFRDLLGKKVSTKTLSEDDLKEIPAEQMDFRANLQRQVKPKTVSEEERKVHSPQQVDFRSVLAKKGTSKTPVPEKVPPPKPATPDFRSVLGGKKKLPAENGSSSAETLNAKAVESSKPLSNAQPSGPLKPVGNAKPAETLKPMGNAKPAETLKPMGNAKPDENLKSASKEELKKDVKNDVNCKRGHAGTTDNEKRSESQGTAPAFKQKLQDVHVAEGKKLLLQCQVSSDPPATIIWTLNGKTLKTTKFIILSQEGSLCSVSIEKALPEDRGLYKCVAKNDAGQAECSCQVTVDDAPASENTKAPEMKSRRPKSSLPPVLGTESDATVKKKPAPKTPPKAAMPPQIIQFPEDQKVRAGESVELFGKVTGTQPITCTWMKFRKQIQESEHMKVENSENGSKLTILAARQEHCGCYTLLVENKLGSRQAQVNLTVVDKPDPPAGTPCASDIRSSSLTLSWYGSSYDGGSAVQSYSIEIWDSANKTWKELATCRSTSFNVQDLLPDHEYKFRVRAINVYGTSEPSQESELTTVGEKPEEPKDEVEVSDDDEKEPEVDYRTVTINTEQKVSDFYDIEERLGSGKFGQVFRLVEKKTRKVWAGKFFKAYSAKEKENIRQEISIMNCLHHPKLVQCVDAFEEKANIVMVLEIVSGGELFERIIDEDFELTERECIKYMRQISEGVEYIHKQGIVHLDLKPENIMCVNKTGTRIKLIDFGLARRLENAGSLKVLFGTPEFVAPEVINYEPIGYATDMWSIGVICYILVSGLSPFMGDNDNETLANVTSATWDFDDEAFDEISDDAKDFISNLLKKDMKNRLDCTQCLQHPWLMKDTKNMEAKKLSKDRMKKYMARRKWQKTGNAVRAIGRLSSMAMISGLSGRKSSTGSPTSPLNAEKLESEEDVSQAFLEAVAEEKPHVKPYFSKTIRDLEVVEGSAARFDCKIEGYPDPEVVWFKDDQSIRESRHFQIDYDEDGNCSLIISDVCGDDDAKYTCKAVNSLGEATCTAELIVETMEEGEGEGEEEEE
# Chain of NUAK1 (human) (O60285 whole entry, looked up): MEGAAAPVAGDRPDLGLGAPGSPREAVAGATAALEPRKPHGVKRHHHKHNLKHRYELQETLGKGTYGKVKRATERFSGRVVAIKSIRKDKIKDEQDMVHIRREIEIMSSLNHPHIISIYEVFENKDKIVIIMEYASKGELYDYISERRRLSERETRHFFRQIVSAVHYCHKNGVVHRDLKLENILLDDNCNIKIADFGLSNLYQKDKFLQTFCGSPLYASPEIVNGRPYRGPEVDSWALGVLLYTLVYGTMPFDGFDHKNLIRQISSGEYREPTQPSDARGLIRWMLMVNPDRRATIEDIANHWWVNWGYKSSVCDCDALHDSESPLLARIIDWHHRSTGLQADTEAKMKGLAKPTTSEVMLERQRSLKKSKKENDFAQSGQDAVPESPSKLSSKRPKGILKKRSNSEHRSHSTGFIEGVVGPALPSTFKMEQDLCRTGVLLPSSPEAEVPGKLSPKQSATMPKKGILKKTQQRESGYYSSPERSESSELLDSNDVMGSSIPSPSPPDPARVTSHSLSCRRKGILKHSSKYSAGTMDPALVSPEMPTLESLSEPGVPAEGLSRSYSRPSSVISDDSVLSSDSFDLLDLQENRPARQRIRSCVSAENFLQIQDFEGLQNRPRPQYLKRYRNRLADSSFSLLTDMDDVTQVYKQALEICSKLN
# Chain of MAPKAPK3 (human) (Q16644 whole entry, looked up): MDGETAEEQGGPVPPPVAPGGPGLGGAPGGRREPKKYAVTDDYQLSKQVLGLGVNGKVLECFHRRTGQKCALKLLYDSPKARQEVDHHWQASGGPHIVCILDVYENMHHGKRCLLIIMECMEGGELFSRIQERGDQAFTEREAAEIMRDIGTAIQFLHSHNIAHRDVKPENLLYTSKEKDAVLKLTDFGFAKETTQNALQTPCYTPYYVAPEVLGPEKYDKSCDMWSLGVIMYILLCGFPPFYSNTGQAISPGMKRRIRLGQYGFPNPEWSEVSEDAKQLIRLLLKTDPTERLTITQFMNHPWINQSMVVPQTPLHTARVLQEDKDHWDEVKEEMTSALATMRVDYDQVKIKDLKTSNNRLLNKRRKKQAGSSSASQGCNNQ
# Chain of GCK (human) (Q12851 whole entry, looked up): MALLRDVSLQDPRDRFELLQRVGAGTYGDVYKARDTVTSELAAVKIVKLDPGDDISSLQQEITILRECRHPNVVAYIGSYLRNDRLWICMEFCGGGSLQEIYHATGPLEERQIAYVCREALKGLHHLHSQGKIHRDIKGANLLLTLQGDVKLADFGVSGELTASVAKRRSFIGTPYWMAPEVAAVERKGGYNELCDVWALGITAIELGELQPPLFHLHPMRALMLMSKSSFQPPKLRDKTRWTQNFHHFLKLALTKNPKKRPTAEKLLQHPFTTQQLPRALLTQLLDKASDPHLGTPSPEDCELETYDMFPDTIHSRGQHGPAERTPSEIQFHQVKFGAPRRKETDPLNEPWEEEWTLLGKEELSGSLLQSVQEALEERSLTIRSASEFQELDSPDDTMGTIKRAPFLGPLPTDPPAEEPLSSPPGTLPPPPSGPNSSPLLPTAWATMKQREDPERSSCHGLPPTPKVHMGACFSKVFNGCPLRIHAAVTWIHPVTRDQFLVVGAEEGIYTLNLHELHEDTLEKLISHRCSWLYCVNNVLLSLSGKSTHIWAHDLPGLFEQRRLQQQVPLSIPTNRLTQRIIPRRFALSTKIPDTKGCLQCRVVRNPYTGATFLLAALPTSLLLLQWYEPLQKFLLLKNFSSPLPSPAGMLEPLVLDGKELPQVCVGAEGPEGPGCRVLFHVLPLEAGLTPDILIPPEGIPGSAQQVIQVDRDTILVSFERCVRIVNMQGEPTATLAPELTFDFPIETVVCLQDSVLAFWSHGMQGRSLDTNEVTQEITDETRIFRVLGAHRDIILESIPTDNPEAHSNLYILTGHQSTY
# Chain of IRAK4 (human) (Q9NWZ3 whole entry, looked up): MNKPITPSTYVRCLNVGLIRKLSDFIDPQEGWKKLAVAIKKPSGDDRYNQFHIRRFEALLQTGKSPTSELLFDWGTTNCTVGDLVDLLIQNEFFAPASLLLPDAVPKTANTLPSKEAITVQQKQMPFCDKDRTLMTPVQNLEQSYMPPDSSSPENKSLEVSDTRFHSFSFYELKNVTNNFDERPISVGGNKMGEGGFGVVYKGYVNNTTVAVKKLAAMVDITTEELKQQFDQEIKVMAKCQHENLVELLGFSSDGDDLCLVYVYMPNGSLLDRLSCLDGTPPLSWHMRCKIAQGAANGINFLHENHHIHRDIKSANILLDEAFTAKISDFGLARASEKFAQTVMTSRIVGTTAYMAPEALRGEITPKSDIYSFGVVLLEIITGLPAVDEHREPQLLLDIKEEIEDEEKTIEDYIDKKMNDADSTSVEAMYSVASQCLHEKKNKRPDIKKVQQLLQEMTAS
# Chain of MARK4 (human) (Q96L34 whole entry, looked up): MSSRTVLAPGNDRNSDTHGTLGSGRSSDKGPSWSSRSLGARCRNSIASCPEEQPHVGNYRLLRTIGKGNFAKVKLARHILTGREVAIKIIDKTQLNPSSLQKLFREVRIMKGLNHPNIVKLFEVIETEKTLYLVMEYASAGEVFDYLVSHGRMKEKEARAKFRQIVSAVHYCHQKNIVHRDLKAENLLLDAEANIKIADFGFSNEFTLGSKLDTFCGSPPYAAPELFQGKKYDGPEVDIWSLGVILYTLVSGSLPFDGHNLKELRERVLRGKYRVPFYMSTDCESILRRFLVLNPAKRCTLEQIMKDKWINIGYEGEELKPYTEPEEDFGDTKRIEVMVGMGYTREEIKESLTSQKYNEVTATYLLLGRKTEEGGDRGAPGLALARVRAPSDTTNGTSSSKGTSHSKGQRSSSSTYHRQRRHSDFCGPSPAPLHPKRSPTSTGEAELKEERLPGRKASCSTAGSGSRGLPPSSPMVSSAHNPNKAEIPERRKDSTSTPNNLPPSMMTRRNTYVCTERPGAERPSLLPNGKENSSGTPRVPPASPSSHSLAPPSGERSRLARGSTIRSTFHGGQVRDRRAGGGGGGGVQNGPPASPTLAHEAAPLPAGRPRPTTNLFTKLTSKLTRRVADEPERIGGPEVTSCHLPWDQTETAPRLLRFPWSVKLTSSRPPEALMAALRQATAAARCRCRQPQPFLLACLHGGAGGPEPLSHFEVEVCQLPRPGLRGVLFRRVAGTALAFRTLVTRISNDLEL
smiles,measurement,setting,value
CCC(=O)N1CCN(c2ccc(-n3c(=O)ccc4cnc5ccc(-c6cnc7ccccc7c6)cc5c43)cc2C(F)(F)F)CC1,per cent of control,GCK (human); compound 1.0 µM,69%
same,per cent of control,GCK (human); compound 10.0 µM,25%
same,per cent of control,IRAK4 (human); compound 1.0 µM,112%
same,per cent of control,IRAK4 (human); compound 10.0 µM,76%
same,per cent of control,ERBB4 (human); compound 1.0 µM,110%
same,per cent of control,ERBB4 (human); compound 10.0 µM,111%
same,per cent of control,MAPK10 (human); compound 1.0 µM,99%
same,per cent of control,MAPK10 (human); compound 10.0 µM,79%
same,per cent of control,BRSK1 (human); compound 1.0 µM,99%
same,per cent of control,BRSK1 (human); compound 10.0 µM,94%
same,per cent of control,NUAK1 (human); compound 1.0 µM,101%
same,per cent of control,NUAK1 (human); compound 10.0 µM,79%
same,per cent of control,HIPK3 (human); compound 1.0 µM,107%
same,per cent of control,HIPK3 (human); compound 10.0 µM,91%
same,per cent of control,[1]; compound 1.0 µM,93%
same,per cent of control,[1]; compound 10.0 µM,82%
same,per cent of control,STK11 (human); compound 1.0 µM,96%
same,per cent of control,STK11 (human); compound 10.0 µM,80%
same,per cent of control,[2]; compound 1.0 µM,94%
same,per cent of control,[2]; compound 10.0 µM,71%
same,per cent of control,MAPKAPK3 (human); compound 1.0 µM,113%
same,per cent of control,MAPKAPK3 (human); compound 10.0 µM,105%
same,per cent of control,MINK1 (human); compound 1.0 µM,69%
same,per cent of control,MINK1 (human); compound 10.0 µM,14%
same,per cent of control,MAP3K11 (human); compound 1.0 µM,99%
same,per cent of control,MAP3K11 (human); compound 10.0 µM,86%
same,per cent of control,AURKA (human); compound 1.0 µM,88%
same,per cent of control,AURKA (human); compound 10.0 µM,68%
same,per cent of control,MYLK (human) [3]; compound 1.0 µM,94%
same,per cent of control,MYLK (human) [3]; compound 10.0 µM,83%
same,per cent of control,TTK (human); compound 1.0 µM,79%
same,per cent of control,TTK (human); compound 10.0 µM,71%
same,per cent of control,MAP3K9 (human); compound 1.0 µM,92%
same,per cent of control,MAP3K9 (human); compound 10.0 µM,48%
same,per cent of control,MARK4 (human); compound 1.0 µM,94%
same,per cent of control,MARK4 (human); compound 10.0 µM,97%
same,"kinase still bound, per cent of control",PDGFRA (human),63%
same,"kinase still bound, per cent of control",WEE1 (human),42%
same,"kinase still bound, per cent of control",DCLK1 (human),100%
same,"kinase still bound, per cent of control",TLK2 (human),100%
same,"kinase still bound, per cent of control",PKMYT1 (human),52%
same,"kinase still bound, per cent of control",MAPK15 (human),79%
same,"kinase still bound, per cent of control",TGFBR2 (human),77%
same,"kinase still bound, per cent of control",ANKK1 (human),93%
same,"kinase still bound, per cent of control",DDR1 (human),100%
same,"kinase still bound, per cent of control",ZAP70 (human),100%
same,"kinase still bound, per cent of control",PIK3C2B (human),25%
same,"kinase still bound, per cent of control",[4],18%
same,"kinase still bound, per cent of control",ACVR2A (human),47%
same,per cent of control,MYLK (human) [5],87%
same,"kinase still bound, per cent of control",GSK3B (human),100%
same,per cent of control,PRKACA (human),79%
same,"kinase still bound, per cent of control",MAP2K4 (human),30%
